{"source": "patent US8729053B2", "about": "“Nuclear factor kappa B pathway inhibitor composition and use of same” (The United States of America, as represented by the …, priority 2008, dated 2014)", "key": {"estrogen receptor": {"test_system": "estrogen receptor", "assay": "ERE promoter luciferase reporter assay in ER-positive breast cancer cells", "type": "cell-based", "procedure": "(§1) In order to evaluate the potential therapeutic activity of the compound, tests for the biological activity of compound I were performed. The compound is non-toxic to MCF-7, T47D, and MDA-MB-231 breast cancer cells as estimated by XTT assay at 10 μM. To determine the effects of compound I on invasion by breast cancer cell lines, a matrigel invasion assay was used. The levels of phosphorylated IκBα were confirmed in TPA treated ER-positive (MCF-7 and T47D) and ER-negative (MDA-MB-231) breast cancer cell lines and compared the levels to those after pretreatment with compound I. Although induced levels of phosphorylated IκBα varied with the cell line, IκBα phosphorylation was eliminated by compound I treatment in all three breast cancer cell lines. Compound I also produced no effect on the estrogen receptor activity in the ER-positive breast cancer cells using ERE promoter luciferase reporter assay. Invasion capacity of breast cancer cells was increased by TPA stimulation compared to DMSO treated vehicle control. […] Following anchorage-independent colony induction in TPA-treated cells without or with compound I, colonies were lysed and measured with CyQuant GR Dye to detect DNA by fluorescence plate reader as a measure of colony count. Total transformed colony numbers were calculated from RFU and cell dose curve of JB6 cells. […]"}, "AP-1": {"test_system": "AP-1", "assay": "EMSA of AP-1 DNA binding, HEK293 nuclear fractions", "type": "cell-based", "details": "17 μM", "procedure": "(§2) EMSA was performed with the nuclear fraction of HEK293 cell using LightShift Chemiluminescent EMSA Kit (Pierce Biotechnology, Rockford, Ill.) according to the manufacture's instruction. Oligonucleotides for NFκB, NF-1, and AP-1 were labeled with biotin by Biotin 3′ End DNA labeling Kit (Pierce Biotechnology, Rockford, Ill.). The quantified 15 μg of nuclear extracts were incubated for 20 mins with 1 μg/μl Poly (dI.dC), biotin end-label target nucleotides in 20 μl binding buffer DNA-protein complexes were fractionated on 6% a polyacrylamide gel and transferred to a nylon membrane. The membranes were processed to detect biotin-label DNA by cross-linking, blocking, and detection incubations. Results were obtained by X-ray film exposure for 10 sec and development. The target sequences of oligonucleotides for NFκB, NF-1, and AP-1 are as follows;\n(§3) To determine whether the effect of compound I on nuclear translocation of NFκB leads to inhibited binding of NFκB proteins to DNA, EMSA in HEK293 cells was performed. […] TPA-induced binding complex was attenuated by pretreatment with compound I in a dose-dependent manner (lanes 5-9). This binding inhibition parallels the inhibition of luciferase reporter transactivation and inhibition of nuclear translocation of NFκB proteins. […]"}, "[1]": {"test_system": "MCF-7, T47D, and MDA-MB-231 breast cancer cells", "assay": "XTT assay in breast cancer cells", "type": "cell-based", "details": "10 μM", "procedure": "as §1"}, "RelB/p52": {"test_system": "RelB/p52", "assay": "Nuclear translocation of RelB/p52 and p100 processing, immunoblot", "type": "cell-based", "details": "HEK293", "procedure": "(§4) To measure endogenous level of several proteins in response to TPA induction and compound I, HEK293 cells were lysed with RIPA buffer (10 mM Tris-HCl pH 7.5, 1 mM EDTA, 0.1% sodium dodecyl sulfate, 0.1% deoxycholate, and protease inhibitor). Whole cell extracts were subjected to immunoblot analysis with the following antibodies: p65 (F-6), p50 (E-10), p52 (C-5), RelB (C-19), IκBα (C-21), PCNA (F-2) were obtained from Santa Cruz Biotechnology (Santa Cruz, Calif.). IKKα, IKKβ, IKKγ, phospho-IκBα, phospho-IKKα/β, phospho-IKKγ, pohospho-Stat3 (Tyr 705 and Ser 727), phospho-p65 (Ser536 and Ser276), phospho-p44/42, phospho-JNKs were purchased from Cell Signaling (Danvers, Mass.), and α-tubulin from Sigma (St. Louis, Mo.). Nuclear and cytoplasmic extracts were prepared with HEK293 cells by NE-PER Nuclear and Cytoplasmic Extraction Reagents (Pierce Biotechnology, Rockford, Ill.) according to the manufacturer's protocol.\nNuclear translocation of endogenous p65/p50 and RelB/p52 heterodimers were monitored The activation of heterodimers p65/p50 and RelB/p52 occurs by distinct pathways dependent on IKKβ or IKKα catalytic activity. Repression of IKKβ would be expected to influence nuclear translocation of p65/p50 while repression of IKKα would influence processing of p100 to p52. […] However translocation of RelB is only dependent on IKKα for processing of its dimer partner p52 from p100. This processing depends on phosphorylation of p100 by IKKα. The processing of p100 to nuclear p52 was not inhibited by compound I but was proportional to expression levels of p100. Compound I inhibited expression of p100 by an unknown mechanism. […] Instead compound I inhibits IKKβ."}, "JB6 cells (clone 41)": {"test_system": "JB6 cells (clone 41)", "assay": "JB6 soft agar cell transformation assay", "type": "cell-based, mouse", "details": "for Transformation response to TPA: 10 days, TPA 10 ng/ml", "procedure": "JB6 cells (clone 41) were used to assess the inhibitory activity of compound I using CytoSelect 96-well Cell Transformation Assay (Cell Biolabs, Huissen, Netherlands) as Soft Agar Assay according to manufacturer's instructions. Cells were incubated for 10 days in 0.4% agar medium over 0.6% agar containing TPA or TPA with compound I or DMSO as a control. To measure anchorage-independent growth, agar-layers were dissolved and lysed. 10 μl of the lysed solutions of each well were mixed with CyQuant and the fluorescence read by iQ5 with a FAM filter of 485/520 nm. As an alternative analysis, cell dose curves of JB6 cells were quantified by the End point using CyQuant to indicate relative anchorage-independent colony number.\nas §1"}, "IκBα": {"test_system": "IκBα", "assay": "Phosphorylated IκBα levels in TPA treated breast cancer cell lines", "type": "cell-based", "details": "TPA treated MCF-7, T47D, MDA-MB-231", "procedure": "as §1"}, "STAT3": {"test_system": "STAT3", "assay": "Immunoblot of TPA-inducible STAT3 phosphorylation", "type": "cell-based", "details": "17.0 μM and 8.5 μM pretreatment", "procedure": "as §4\nThe selectivity of compound I was evaluated by measuring phosphorylation of proteins involved in the AP-1 induction pathway. AP-1 dependent transcription can be activated by MAP Kinases JNK, ERK 1/2 (p44/42). […] At these concentrations compound I, in contrast, completely repressed major regulators in the NFκB activation pathway. JNKs are activated by a variety of environmental stresses responsible for AP-1 activation through c-Jun phosphorylation. […]"}, "NF-1": {"test_system": "NF-1", "assay": "EMSA of NF-1 DNA binding, HEK293 nuclear fractions", "type": "cell-based", "details": "17 μM", "procedure": "as §2, §3"}}, "note": "“Also recorded” adds a separate entry of the source. Counter-ions that a name gives are not always drawn.", "data": [{"smiles": "Cc1cc(N)ccc1N=Nc1ccc(S(=O)(=O)CCOS(=O)(=O)O)cc1", "note": "[compound I, 2-(4-((4-amino-2-methylphenyl)diazenyl)phenylsulfonyl)ethyl hydrogen sulfate]", "values": [{"measurement": "Effect on estrogen receptor activity", "setting": "estrogen receptor", "value": "no effect"}, {"measurement": "AP-1 DNA binding activity", "setting": "AP-1", "value": "little or no effect"}, {"measurement": "Toxicity estimated by XTT assay", "setting": "[1]", "value": "non-toxic"}, {"measurement": "Expression of p100", "setting": "RelB/p52", "value": "inhibited; also recorded: reduced"}, {"measurement": "Processing of p100 to nuclear p52", "setting": "RelB/p52", "value": "not inhibited; also recorded: did not inhibit"}, {"measurement": "TPA-induced nuclear translocation of RelB", "setting": "RelB/p52; compound I pretreatment", "value": "remarkably repressed"}, {"measurement": "Tumor promoter induced transformation of JB6 cells", "setting": "JB6 cells (clone 41)", "value": "inhibits"}, {"measurement": "Transformation response to TPA", "setting": "JB6 cells (clone 41); 1.1 μM", "value": "decreased"}, {"measurement": "Transformation response to TPA", "setting": "JB6 cells (clone 41); 17.0 μM to 2.1 μM", "value": "repressed to below vehicle control level"}, {"measurement": "IκBα phosphorylation in breast cancer cell lines", "setting": "IκBα", "value": "eliminated"}, {"measurement": "TPA inducible phosphorylation of STAT3", "setting": "STAT3", "value": "no repression"}, {"measurement": "NF-1 DNA binding activity", "setting": "NF-1", "value": "little or no effect"}]}]}
